{"source": "paper PMC5085249", "about": "“The Diguanylate Cyclase HsbD Intersects with the HptB Regulatory Cascade to Control Pseudomonas aeruginosa Biofilm and Motility” (PLoS Genetics, 2016)", "biological_target": "T1, HsbD (PA3343) (Pseudomonas aeruginosa, UniProt Q9HYQ2)", "T1 construct": "His-HsbD overexpressed in E. coli BL21(DE3), whole-cell lysate; native protein 389 aa, six predicted TM domains (52-206), GGDEF domain 252-389; tag kept", "T1 sequence (Q9HYQ2 entry or part of it)": "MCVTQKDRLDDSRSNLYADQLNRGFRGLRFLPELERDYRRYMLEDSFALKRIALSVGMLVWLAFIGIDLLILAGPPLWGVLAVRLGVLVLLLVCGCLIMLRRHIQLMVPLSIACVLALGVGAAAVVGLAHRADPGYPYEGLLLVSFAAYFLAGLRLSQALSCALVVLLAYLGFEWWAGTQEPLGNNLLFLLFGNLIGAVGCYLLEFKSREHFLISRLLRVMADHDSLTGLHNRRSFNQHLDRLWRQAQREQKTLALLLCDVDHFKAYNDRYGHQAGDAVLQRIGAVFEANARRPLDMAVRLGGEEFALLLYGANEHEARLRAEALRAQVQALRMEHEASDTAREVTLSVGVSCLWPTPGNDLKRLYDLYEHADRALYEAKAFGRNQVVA", "assay": "DRaCALA (nitrocellulose, […]-labelled ligand)", "assay_type": "binding", "conditions": "4 nM 32P-c-di-GMP; E. coli whole-cell lysate; 40 mM Tris pH 7.5, 100 mM NaCl, 10 mM MgCl2; allosteric inhibitory I-site; labelled compound"}
{"smiles": "Nc1nc2c(ncn2[C@@H]2O[C@@H]3COP(=O)(O)O[C@H]4[C@@H](O)[C@H](n5cnc6c(=O)[nH]c(N)nc65)O[C@@H]4COP(=O)(O)O[C@H]3[C@H]2O)c(=O)[nH]1", "note": "[c-di-GMP]", "values": [{"measurement": "fraction bound", "value": "Significant c-di-GMP binding was observed with the construct encoding wild-type HsbD"}]}
